Data as given in patent US8193191B2, “Urotensin II receptor antagonists” (Janssen Pharmaceutica N.V., priority 2006, dated 2012).

Key:
[1] = molecular target: T1, rat GPR14 (U-II receptor) (Rattus norvegicus, UniProt P49684); assay: Rat UII Calcium Mobilization FLIPR Assay; assay type: cell-based; conditions: average value for the compound tested; read-out: Rat UII FLIPR Average IC50
T1 construct: expressed in transfected cells
T1 sequence (P49684 1-386): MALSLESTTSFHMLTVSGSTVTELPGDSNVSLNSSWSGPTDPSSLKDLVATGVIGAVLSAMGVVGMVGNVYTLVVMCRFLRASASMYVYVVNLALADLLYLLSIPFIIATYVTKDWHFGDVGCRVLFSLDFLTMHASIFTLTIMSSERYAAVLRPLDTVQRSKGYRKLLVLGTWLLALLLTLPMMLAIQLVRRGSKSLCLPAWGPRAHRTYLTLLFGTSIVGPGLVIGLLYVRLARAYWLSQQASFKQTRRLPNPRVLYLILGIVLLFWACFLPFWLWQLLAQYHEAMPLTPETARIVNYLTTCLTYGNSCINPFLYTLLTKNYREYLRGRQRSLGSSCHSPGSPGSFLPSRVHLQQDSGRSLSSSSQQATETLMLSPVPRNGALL
How it was run: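 CHO cells stably expressing rat U-II receptor, seeded 24 h before assay, were loaded with FLIPR calcium dye in HBSS/20 mM HEPES/0.1% BSA/2.5 mM probenecid, pH 7.4, for 1 h at 37° C. Calcium mobilization then read by FLIPR at 23° C.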

[2] = molecular target: T2, Human UII receptor, 6D9 human rhabdomyosarcoma cells (Homo sapiens, UniProt Q9UKP6); assay: Human UII Calcium Mobilization Assay; assay type: cell-based; conditions: average value, FLIPR TETRA, read-out: Human UII Ca^+ Mobilization Average IC50
T2 construct: 6D9: isolated by dilution subcloning of RMS13 cells, ATCC® Number: CRL-2061; host or cells: 6D9 human rhabdomyosarcoma cells (subclone of RMS13)
T2 sequence (Q9UKP6 1-389): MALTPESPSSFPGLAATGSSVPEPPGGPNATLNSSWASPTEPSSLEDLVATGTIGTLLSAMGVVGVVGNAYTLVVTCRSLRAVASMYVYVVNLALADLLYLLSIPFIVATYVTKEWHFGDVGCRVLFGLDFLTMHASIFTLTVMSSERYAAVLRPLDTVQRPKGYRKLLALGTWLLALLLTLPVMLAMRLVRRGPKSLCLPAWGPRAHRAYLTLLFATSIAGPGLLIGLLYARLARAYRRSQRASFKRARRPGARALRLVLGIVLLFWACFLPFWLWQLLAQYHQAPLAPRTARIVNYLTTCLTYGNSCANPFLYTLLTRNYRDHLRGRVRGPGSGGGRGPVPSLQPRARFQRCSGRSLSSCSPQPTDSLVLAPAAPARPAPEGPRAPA
Experimental: 6D9 human rhabdomyosarcoma cells were seeded into tissue culture treated 384-well black-walled clear bottom plates (3712, Corning Incorporated, Corning, N.Y.) at 8,000 cells/well in 25 μL of culture medium, and maintained in an incubator (5% CO2 at 37° C.) for 22 hrs prior to the calcium mobilization assay. 25 μL of dye solution was added to the wells such that the final liquid volume before agonist/antagonist treatment was 50 μL for all assays. The cell plates were incubated at 37° C. for 45 minutes and the fluorescence intensity was measured on a Fluorometric Imaging Plate Reader (FLIPR^TETRA, Molecular Devices, Sunnyvale, Calif.).
Antagonist and agonist U-II were added at room temperature on the FLIPR^TETRA, and the fluorescence intensity before and after addition was measured over a period of 4 minutes. The dye incubation time and temperature as well as instrument setting was adjusted so the fluorescence intensity could be compared between plates on the same day. EC50 and IC50 were analyzed using GraphPad Prism 4 software (GraphPad Software Inc., San Diego, Calif.).
Materials and reagent Preparation: Human Rhabdomyosarcoma cells (6D9: isolated by dilution subcloning of RMS13 cells, ATCC® Number: CRL-2061, American Type Culture Collection ATCC, Manassas, Va.) was maintained in RPMI-1640 medium (30-2001, ATCC, Manassas, Va.) supplemented with 10% (v/v) Fetal Bovine Serum (SH30071.03, Hyclone, Logan, Utah).
Dye preparation: BD™ Calcium Assay Kit (80500-301, BD Biosciences, Rockville, Md.) was prepared according to the manufacture's instruction in 1× Hanks' balanced salt solution (HBSS, 21-023-CV, Mediatech, Inc. Herndon, Va.) containing 20 mM HEPES buffer (25-060-CI, Mediatech, Inc. Herndon, Va.). Final dye loading conditions included 1.25 mM probenecid (P36400, Invitrogen, Carlsbad, Calif.) and 0.01% FBS.
Urantide (PUT-3639-PI, Peptide International, Louisville, Ky.) was prepared in water at 5 mM. For assays, U-II agonist, U-II antagonist and urantide were diluted with HBSS/HEPES containing 0.01% FBS.
Test compounds were dissolved in DMSO at 10 mM concentration. The serial dilutions were carried out in HBSS/HEPES. The highest final DMSO concentration was at 0.1%.

[3] = molecular target: T3, endogenous human UII receptor (Homo sapiens, UniProt Q9UKP6); assay: Human Radioligand Binding Assay ((^125I)-U-II binding to human skeletal muscle myoblasts)
T3 sequence (Q9UKP6 1-389): T2 sequence (Q9UKP6 1-389)

| Compound | IC50 [1] | IC50 [2] | Ki [3] |
| --- | --- | --- | --- |
| COc1ccc(CN2C(=O)c3cccc(N4CCN(C5C6CC7CC(C6)CC5C7)CC4)c3C2=O)cc1OC (centres unmarked) [Cpd 87, 4-(4-adamantan-2-yl-piperazin-1-yl)-2-(3,4-dimethoxy-benzyl)-isoindole-1,3-dione] | 0.48 µM | 1.5 µM | – |
| COc1ccc(C(CCNC(=O)Cc2ccncc2)N2C(=O)c3cccc(N4CCN([C@H](C)c5ccccc5)CC4)c3C2=O)cc1OC (stereo partly drawn) [Cpd 103, N-(3-(3,4-dimethoxy-phenyl)-3-{1,3-dioxo-4-[4-(1R)-(1-phenyl-ethyl)-piperazin-1-yl]-1,3-dihydro-isoindol-2-yl}-propyl)-2-pyridin-4-yl-acetamide] | 0.035 µM | 0.59 µM | – |
| COc1ccc([C@@H](CCCNS(=O)(=O)c2cc(C)sc2C)N2C(=O)c3cccc(N4CCN([C@H](C)c5ccccc5)CC4)c3C2=O)cc1OC [Cpd 131, (R)-2,5-dimethyl-thiophene-3-sulfonic acid (4-(3,4-dimethoxy-phenyl)-4-{1,3-dioxo-4-[4-(1R)-(1-phenyl-ethyl)-piperazin-1-yl]-1,3-dihydro-isoindol-2-yl}-butyl)-amide] | 0.12 µM | – | > 0.3 µM |
| CCn1cc(S(=O)(=O)NCCC[C@H](c2ccc(OC)c(OC)c2)N2C(=O)c3cccc(N4CCN([C@H](C)c5ccccc5)CC4)c3C2=O)cn1 [Cpd 134, (R)-1-ethyl-1H-pyrazole-4-sulfonic acid (4-(3,4-dimethoxy-phenyl)-4-{1,3-dioxo-4-[4-(1R)-(1-phenyl-ethyl)-piperazin-1-yl]-1,3-dihydro-isoindol-2-yl}-butyl)-amide] | 0.019 µM | – | 0.068 µM |
| COc1ccc([C@@H](CCCNc2ccccn2)N2C(=O)c3cccc(N4CCN([C@H](C)c5ccccc5)CC4)c3C2=O)cc1OC [Cpd 142, (R)-2-[1-(3,4-dimethoxy-phenyl)-4-(pyridin-2-ylamino)-butyl]-4-[4-(1R)-(1-phenyl-ethyl)-piperazin-1-yl]-isoindole-1,3-dione] | 0.097 µM | 1.1 µM | – |
| COc1ccc([C@@H](CCCNC(=O)CN(C)C)N2C(=O)c3cccc(N4CCN([C@H](C)c5ccccc5)CC4)c3C2=O)cc1OC [Cpd 143, (R)-N-(4-(3,4-dimethoxy-phenyl)-4-{1,3-dioxo-4-[4-(1R)-(1-phenyl-ethyl)-piperazin-1-yl]-1,3-dihydro-isoindol-2-yl}-butyl)-2-dimethylamino-acetamide] | 0.028 µM | 0.69 µM | – |
| COc1ccc([C@@H](CCCNS(=O)(=O)c2cccs2)N2C(=O)c3cccc(N4CCN(CC(F)(F)F)CC4)c3C2=O)cc1OC [Cpd 195, (R)-thiophene-2-sulfonic acid (4-(3,4-dimethoxy-phenyl)-4-{1,3-dioxo-4-[4-(2,2,2-trifluoro-ethyl)-piperazin-1-yl]-1,3-dihydro-isoindol-2-yl}-butyl)-amide] | 2.1 µM | > 10 µM | – |
| COc1ccc([C@@H](CCCNC(=O)C(C)C)N2C(=O)c3cccc(OC4CCN(C)CC4)c3C2=O)cc1OC [Cpd 205, (R)-N-{4-(3,4-dimethoxy-phenyl)-4-[4-(1-methyl-piperidin-4-yloxy)-1,3-dioxo-1,3-dihydro-isoindol-2-yl]-butyl}-isobutyramide] | 3.7 µM | > 3 µM | – |

Further molecules by falling IC50 [1], results first:

| IC50 [1] | IC50 [2] | Ki [3] | Compound |
| --- | --- | --- | --- |
| 4 µM | > 10 µM | – | COc1ccc([C@@H](CCCNC(=O)C(C)C)N2C(=O)c3cccc(OC4CCN(C)C4)c3C2=O)cc1OC (stereo partly drawn) [Cpd 200, (R)-N-{4-(3,4-dimethoxy-phenyl)-4-[4-(1-methyl-pyrrolidin-3-yloxy)-1,3-dioxo-1,3-dihydro-isoindol-2-yl]-butyl}-isobutyramide] |
| 0.081 µM | – | 0.34 µM | COc1ccc([C@@H](CCCNS(=O)(=O)c2ccc(C)s2)N2C(=O)c3cccc(N4CCN([C@H](C)c5ccccc5)CC4)c3C2=O)cc1OC [Cpd 126, (R)-5-methyl-thiophene-2-sulfonic acid (4-(3,4-dimethoxy-phenyl)-4-{1,3-dioxo-4-[4-(1R)-(1-phenyl-ethyl)-piperazin-1-yl]-1,3-dihydro-isoindol-2-yl}-butyl)-amide] |
| 0.064 µM | – | 0.13 µM | COc1ccc([C@@H](CCNC(=O)OCc2ccccc2)N2C(=O)c3cccc(N4CCN([C@H](C)c5ccccc5)CC4)c3C2=O)cc1OC [Cpd 216, (R)-(3-(3,4-dimethoxy-phenyl)-3-{1,3-dioxo-4-[4-(1R)-(1-phenyl-ethyl)-piperazin-1-yl]-1,3-dihydro-isoindol-2-yl}-propyl)-carbamic acid benzyl ester] |
| 0.056 µM | – | 0.19 µM | COc1ccc([C@@H](CCCNS(=O)(=O)c2cn(C)nc2C(F)(F)F)N2C(=O)c3cccc(N4CCN([C@H](C)c5ccccc5)CC4)c3C2=O)cc1OC [Cpd 135, (R)-1-methyl-3-trifluoromethyl-1H-pyrazole-4-sulfonic acid (4-(3,4-dimethoxy-phenyl)-4-{1,3-dioxo-4-[4-(1R)-(1-phenyl-ethyl)-piperazin-1-yl]-1,3-dihydro-isoindol-2-yl}-butyl)-amide] |
| 0.054 µM | – | > 0.3 µM | COc1ccc([C@@H](CCCNS(=O)(=O)c2sc(NC(C)=O)nc2C)N2C(=O)c3cccc(N4CCN([C@H](C)c5ccccc5)CC4)c3C2=O)cc1OC [Cpd 130, (R)-N-[5-(4-(3,4-dimethoxy-phenyl)-4-{1,3-dioxo-4-[4-(1R)-(1-phenyl-ethyl)-piperazin-1-yl]-1,3-dihydro-isoindol-2-yl}-butylsulfamoyl)-4-methyl-thiazol-2-yl]-acetamide] |
| 0.014 µM | – | 0.059 µM | COc1ccc([C@@H](CCCNS(=O)(=O)C2CCS(=O)(=O)C2)N2C(=O)c3cccc(N4CCN([C@H](C)c5ccccc5)CC4)c3C2=O)cc1OC (stereo partly drawn) [Cpd 133, (R)-1,1-dioxo-tetrahydro-1λ^6-thiophene-3-sulfonic acid (4-(3,4-dimethoxy-phenyl)-4-{1,3-dioxo-4-[4-(1R)-(1-phenyl-ethyl)-piperazin-1-yl]-1,3-dihydro-isoindol-2-yl}-butyl)-amide] |
| 0.0075 µM | 0.2 µM | – | CCN1CCN(c2cccc3c2C(=O)N([C@H](CCCNS(=O)(=O)c2c(C)nn(C)c2C)c2ccc(OC)c(OC)c2)C3=O)CC1 [Cpd 204, (R)-1,3,5-trimethyl-1H-pyrazole-4-sulfonic acid {4-(3,4-dimethoxy-phenyl)-4-[4-(4-ethyl-piperazin-1-yl)-1,3-dioxo-1,3-dihydro-isoindol-2-yl]-butyl}-amide] |
| 0.0064 µM | 0.35 µM | – | COc1ccc([C@@H](CCCNS(=O)(=O)c2cnc(C)n2C)N2C(=O)c3cccc(N4CCN([C@H](C)c5ccccc5)CC4)c3C2=O)cc1OC [Cpd 127, (R)-2,3-dimethyl-3H-imidazole-4-sulfonic acid (4-(3,4-dimethoxy-phenyl)-4-{1,3-dioxo-4-[4-(1R)-(1-phenyl-ethyl)-piperazin-1-yl]-1,3-dihydro-isoindol-2-yl}-butyl)-amide] |
